Laboratory results: PubChem BioAssay AID493102 (Broad Institute, 2011)

Tested on: SK-MEL-5 TRPM1-promoter luciferase reporter, 24 h
Assay: TRPM1 promoter luciferase signal decrease, dose response, MITF inhibitor project, cell-based, SK-MEL-5, cherry-picked, set 4 (AID 493102);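 also: actives lower the luciferase signal so the potency reflects inhibition of reporter expression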

SMILES | AC50 [µM]
CCOC(=O)N1CCN(C(=O)c2ccc(Cn3c(=S)[nH]c4ccc(Br)cc4c3=O)cc2)CC1 | 3.52
COc1ccc(C(NC(C)=O)c2ccc3cccnc3c2O)c(OC)c1 (centres undefined) | 5.15
CCN(CC)S(=O)(=O)c1ccc(N2CCCC2)c(NC(=O)c2ccc([N+](=O)[O-])o2)c1 | 3.18
CS(=O)(=O)c1ccc(S(=O)CC(=O)OCc2ccccc2)c([N+](=O)[O-])c1 (centres undefined) | 5.46
O=S(=O)(c1ccc(Cl)cc1)N1CCN(Cc2ccc(O)c3ncccc23)CC1 | 4.37
N#Cc1c(NC(=O)CSc2ncn[nH]2)sc2c1CCCCC2 | 0.371
O=C1NC(=O)C(=Cc2ccc(-c3ccc(Cl)cc3)o2)C(=O)N1 | 9.2
CN=c1scc(-c2ccccc2F)n1/N=C/c1ccc[nH]1 | 0.019
CCn1c(/C=C/N(C)c2ccccc2)[n+](CC)c2ccc(Cl)cc21 | 6.86
CCN1CCN(C2=C(NS(=O)(=O)c3ccc(C)cc3)C(=O)c3ccccc3C2=O)CC1 | 4.18
COc1cc(/C=N/NS(=O)(=O)c2ccc3ccccc3c2)ccc1OCc1ccc(C(=O)O)cc1 | 4.78
CCCOc1ccc(C(=O)C(CN2CCCC2)c2ccccc2)cc1 (centres undefined) | 8.62
O=C(NCC1CCCCC1)C1(CC2CC(c3cccc(Br)c3)=NO2)CCNCC1 (centres undefined) | 18.1
O=[N+]([O-])c1ccc(S(=O)(=O)CC(CN2CCCCC2)N2CCCCC2)cc1 (centres undefined) | 4.88
O=C(/C=C/c1cccc([N+](=O)[O-])c1)n1cnc2ccccc21 | 4.39
N=c1n(CC(=O)c2ccc([N+](=O)[O-])cc2)c2ccccc2n1Cc1ccccc1Cl | 4.03
c1ccc(-c2cn3nc4c(nc3n2)CCCC4)cc1 | 5.89
O=[N+]([O-])c1cccc2c(N3CCCC3)ccnc12 | 2.47
Cc1ccc(C(O)(c2ccc(C)c(C)c2)C2CN3CCC2CC3)cc1C (centres undefined) | 10.1
COc1cc2c(cc1O)C(SC)=NC(C)(C)C2 | 11.3
COc1ccc(N/N=C/c2c(C(=O)O)ccc3ccccc23)cc1 | 5.11
CC(C)(C)C(=O)/C(=C/c1ccncc1)n1cncn1 | 6.63
O=C1C=C(N(CCO)Cc2ccccc2)c2ccccc2C1=O | 4.78

SMILES | AC50 [µM]
CN(C)CC1CC/C(=C\c2ccc(O)cc2)C1=O (centres undefined) | 12.9
CCOc1cc(/C=C\[N+](=O)[O-])ccc1OCC(=O)N1CCOCC1 | 7.35
OCCNc1c2ccccc2nc2ccccc12 | 7.28
O=C1/C(=N\S(=O)(=O)c2cccs2)C([n+]2ccccc2)=C([O-])c2ccccc21 | 1.07
COC(=O)CCS(=O)(=O)c1nc(-c2ccccc2)cc(C(F)(F)F)n1 | 5.85
Cc1ccc(-n2nnnc2CNC(=O)c2ccc([N+](=O)[O-])o2)cc1C | 9.72
COc1cc(NC(=O)COc2cc(O)c3c(c2)OC(C)(C)CC3=O)cc(OC)c1OC | 5.36
COc1ccc(C(=O)C(CN2CCOCC2)c2ccccc2)cc1 (centres undefined) | 7.29
CCOc1ccc(NC(=O)c2ccccn2)cc1 | 4.4
O=C(Cc1ccc2c(c1)OCO2)NN=Cc1ccc([N+](=O)[O-])o1 | 8.55
O=C(NCc1cccs1)c1nc2c(nnn2Cc2ccccc2Cl)c(=O)[nH]1 | 6.66
Cc1ccc(NC(=O)c2ccc([N+](=O)[O-])o2)cc1S(=O)(=O)N1CCOCC1 | 11.4
CCC[n+]1c(C)sc2c3c(ccc21)CCCC3 | 9.87
COc1cccc(-c2csc3ncnc(Sc4nnnn4C)c23)c1 | 25
COc1ccc(C(=O)/C=C/C(=O)N(CC(=O)NC2CCCCC2)Cc2ccccc2OC)c(O)c1 | 4.04
O=C(Nc1ccc(F)cc1)c1nc(S(=O)(=O)Cc2ccccc2)ncc1Cl | 9.45
O=C(N/N=C/c1ccc([N+](=O)[O-])o1)c1ccccc1-n1cccc1 | 17.1
COc1ccc2c(C)nc(Nc3nc(-c4ccccc4)cc(=O)[nH]3)nc2c1 | 2.91
O=C1NC2c3c(I)sc(I)c3C(=O)C2O1 (centres undefined) | 15.5
O=C(N/N=C/c1ccc([N+](=O)[O-])s1)C(O)c1ccccc1 (centres undefined) | 4.48
CC(=O)Nc1ccc(NC(=O)c2nc(S(=O)(=O)Cc3ccccc3)ncc2Cl)cc1 | 12.8
Cc1nc2ccccc2n1/N=C/c1ccc([N+](=O)[O-])s1 | 3.51
COc1ccc(C(=O)NC(=O)Nc2cc(C)ccn2)cc1 | 4.96

SMILES | AC50 [µM]
COc1cc2c(cc1OC)C(C)N(S(=O)(=O)c1cnc(Cl)c(Cl)c1)CC2 (centres undefined) | 12.1
Cc1ccc(NCC(=O)N/N=C\c2ccc([N+](=O)[O-])o2)cc1 | 19.1
COC(=O)C1=C(C)N(Cc2ccccc2)C(=NCc2ccccc2)N[C@H]1c1ccccc1 | 18
O=C(Nc1ccccc1N1CCN(C(=O)c2ccccc2)CC1)c1ccc([N+](=O)[O-])o1 | 11.4
Nc1nc2n[nH]nc2c(=O)[nH]1 | 0.875
Cc1nc2ccccn2c1C(=O)N/N=C/c1ccc([N+](=O)[O-])o1 | 8.03
CC(C)C1CC(CCNCc2ccc(N(C)C)cc2)(c2ccccc2)CCO1 (centres undefined) | 11.1
CCN(CC)c1ccc(/C=N/NC(=O)c2cccc(S(=O)(=O)N3CCOCC3)c2)c(O)c1 | 1.52
CCOC(=O)c1ccc(NC2=CC(=O)C(=O)c3ccccc32)cc1 | 4.3
Cc1cc2ncn(/N=C/c3ccc([N+](=O)[O-])o3)c2cc1C | 21.9
CCN1CCN(c2ccc(S(=O)(=O)N3CCOCC3)cc2NC(=O)/C=C/c2ccc([N+](=O)[O-])cc2)CC1 | 8.13
COc1cc(SC)ccc1C(=O)Nc1ncc(C)s1 | 3.65
COc1ccccc1N1C(=O)N(C(C)=O)C2C1Nc1ccccc1N2C (centres undefined) | 10.5
CC1CCCCC1NC(=O)/C(C#N)=C/c1ccccc1F (centres undefined) | 14.4
CC(C)C(CCNC1CCN(C)CC1)c1ccc(Cl)cc1 (centres undefined) | 11.9
O=C(N/N=C/c1cc(Cl)ccc1O)c1ccncc1 | 8.98
CC1CCC/C=C/C(=O)c2c(O)cc(O)cc2CC(=O)O1 (centres undefined) | 5.79
Cc1ccccc1C(=O)N/N=C/c1ccc([N+](=O)[O-])s1 | 1.88
COc1ccc(CCn2c(=S)[nH]c3cc(C(=O)NCc4ccco4)ccc3c2=O)cc1OC | 17.7
COc1ccccc1CNCC(O)Cn1c2ccccc2c2ccccc21 (centres undefined) | 18.7
COc1ccc(C(=O)C(CN2CCCC2)c2ccccc2)cc1 (centres undefined) | 9.13
O=C1NC(=O)N(Cc2ccccc2)C(=O)/C1=C\C=C\c1ccco1 | 6.29
O=C(Nc1ccc(N2CCCC2)c(Cl)c1)c1ccc([N+](=O)[O-])o1 | 11.1

SMILES | AC50 [µM]
COc1ccc(/C=C2\SC(=S)N(CCCC(=O)NNC(=O)c3ccccc3O)C2=O)cc1 | 1.38
Cc1ccc(NC(=O)CCl)cc1S(=O)(=O)N1CCCCCC1 | 7.55
Cc1ccc(-c2c[n+](Cc3ccc(Cl)c(Cl)c3)c3n2CCC3)cc1 | 3.73
COc1ccc(C(=O)/C(C#N)=N/Nc2ccc([N+](=O)[O-])cc2)cc1 | 8.26
CC(C)c1ccc(/C=N/Nc2ccc(C(=O)O)cc2)cc1 | 3.53
Cc1ccc2c(C(=O)CCl)c(C)[nH]c2c1 | 8.17
O=C(O)c1cccc(NC(=S)N/N=C/c2ccccn2)c1 | 8.63
CCOc1ccc(-n2c(-c3ccc(OC)cc3)c[n+]3c2CCCCC3)cc1 | 2.13
CCSCCc1nnc(NC(=O)Nc2cccc(C(F)(F)F)c2)s1 | 8.99
CCN(Cc1ccc(OC)c(F)c1)C(=O)CCl | 3.36
CNC(=O)COC(=O)c1ccccc1C(=O)c1ccc(Cl)c([N+](=O)[O-])c1 | 9.77
N#Cc1c(NC(=O)CSc2ncn[nH]2)sc2c1CCCC2 | 0.599
CCOC(=O)c1[nH]cnc1N=Nc1c(O)ccc2ccccc12 | 3.76
CCOC(=O)c1nnn(-c2ccc([N+](=O)[O-])cc2[N+](=O)[O-])c1C | 8.85
COCCCn1[nH]c2c3c(ccc2c1=O)C(=O)c1ccccc1C3=O | 8.86
COc1ccc(COC(=O)c2cc([N+](=O)[O-])ccc2N2CCOCC2)cc1F | 0.023
c1ccc(C[n+]2cccc3c4ccccc4ccc32)cc1 | 3.41
O=C(/C=C/c1ccccc1)Nc1cccc(C(=O)O)c1 | 1.52
O=C(Cn1ncc(Cl)c(Cl)c1=O)NCC1CCCCC1 | 7.39
CCOc1ccc(NC(=O)CCC(=O)N/N=C/c2ccc([N+](=O)[O-])s2)cc1 | 6.21
CCOc1ccc(-c2ccc(SC)nn2)cc1 | 5.17
Cc1nn(-c2ccccc2Cl)c(Cl)c1/C=N/Nc1cccc(C(=O)O)c1 | 5.5
COCCN(CC(=O)NC1CCCCC1)C(=O)/C=C/C(=O)c1ccc(OC)cc1O | 5.48

SMILES | AC50 [µM]
O=C(Nc1ccc2oc(-c3cccnc3)nc2c1)c1ccc([N+](=O)[O-])o1 | 14.2
Cc1nc(C)c(C(=O)N/N=C/c2cc(Br)ccc2O)s1 | 3.66
Nc1ccc(-c2ncc(-c3ccccc3)o2)cc1 | 0.171
COc1ccc(-n2cc(-c3ccc(C)cc3)[n+]3c2SCC3)cc1 | 2.91
COc1ccc(Br)cc1/C=C/C(=O)c1ccc(NC(C)=O)cc1 | 4.63
O=C(Cc1ccccc1)NCC(=O)N/N=C/c1ccc([N+](=O)[O-])s1 | 16.1
S=C=Nc1cccc(C2(N3CCCCC3)CCCCC2)c1 | 7.36
CCCC(=O)NC(c1ccc(OC)c(OC)c1)c1cc(Cl)c2cccnc2c1O (centres undefined) | 9.06
CC(=O)OCCCNc1cc(Sc2ccc(Cl)cc2)c2nonc2c1[N+](=O)[O-] | 10.9
CN(Cc1ccccc1)C1=CC(=[N+]2CCCCC2)CC(C)(C)C1 | 2.46
COc1ccc(S(=O)(=O)N2CCCCC2)cc1NC(=O)c1ccc([N+](=O)[O-])o1 | 9.14
O=[N+]([O-])c1ccc(/C=N/Nc2ccnc3cc(Cl)ccc23)o1 | 15.3
CCOc1cc(/C=N/Nc2cccc(C(=O)O)c2)ccc1OC(=O)c1ccccc1 | 1.38
[2H]C(CCOS(N)(=O)=O)c1ccc(C(C)(C)C)cc1 (centres undefined) | 0.487
C=C1C(=O)O[C@@H]2[C@H]1[C@@H](OC(=O)/C(C)=C/C)C/C(C)=C\C(=O)/C=C(\C)[C@@H]2O | 7.07
CCC(=O)OCCNc1cc(Sc2nc3ccccc3[nH]2)c2nonc2c1[N+](=O)[O-] | 9.14
Cc1ccc(/C=N/Nc2ccc(C(=O)O)cc2)s1 | 3.3
CC(Oc1ccccc1)C(=O)Nc1nc(-c2ccccn2)cs1 (centres undefined) | 14.1
Cn1cccc1C(=O)NC(=O)COC(=O)c1ccc(S(C)(=O)=O)c([N+](=O)[O-])c1 | 9.23
CCOC(=O)N1C(=O)[C@](CC)(c2ccccc2)N1C(=O)OCC | 10
CC(=O)Nc1ccc(S(=O)(=O)NC2=C(N3CCN(C)CC3)C(=O)c3ccccc3C2=O)cc1 | 3.65
CCCCNC(=O)Nc1ccc(C2SCCS2)cc1 | 35.3
